# From US20260207575A1, “P[…] THE TREATMENT OF JUVENILE HUNTINGTON DISEASE” (Prilenia Neurotherapeutics Ltd., priority 2022, published 2026)
# Where two headings read alike, the source gives them in different places.
# How the values were obtained:
# [1] = test system: HD patients with CAG repeat length >=50; settings: 45 mg bid; up to 78 weeks; CAG >=50
# Protocol: (§1) All patients began treatment with a 2-week titration period (45 mg once a day) followed by full-dose treatment for 63-78 weeks.
# (§2) Efficacy was evaluated using the following clinical endpoints: Change from Baseline to Week 78 in composite UHDRS (cUHDRS) total score, Total Functional Capacity (UHDRS-TFC) score and Stroop Word Reading (SWR) testing for cognitive assessment.
# [2] = test system: HD patients with CAG repeat length >=50; settings: for TFC LS Mean change vs placebo: 45 mg bid (n=1) vs placebo (n=4); for TFC LS Mean change from baseline: n=1
# Protocol: as §1, §2
# The UHDRS-TFC score is a commonly used and regulatory-accepted clinical scale used for assessing the functional capacity of subjects with HD and monitoring the disease's progression and severity over time. This score ranges from 0 to 13 and higher scores indicate better functional capacity. A score of 13 means that the individual is entirely functional with no indications of impairment, while a score of 0 indicates complete dependence on others for daily activities.
# [3] = test system: dopamine D2/D3 receptors; settings: low-affinity binding; cited from earlier work
# [4] = test system: HD patients with CAG repeat length >=50; settings: for cUHDRS LS Mean change vs placebo: 45 mg bid (n=1) vs placebo (n=4); for cUHDRS LS Mean change from baseline: n=1
# Protocol: as §1, §2
# The composite Unified Huntington's Disease Rating Scale (cUHDRS) is a clinical scale used for evaluating the severity and progression of Huntington's disease (HD).
# The cUHDRS is a composite scale assessing overall progression of independent key aspects of HD: functional ability, motor symptoms, and cognitive function. cUHDRS comprises four subscales: Total Functional Capacity (TFC), Total Motor Score (TMS), and 2 cognitive measures: the Symbol-Digit Modality Test (SDMT), and Stroop Word Reading (SWR) Test.
# The cUHDRS score is a validated scale used for tracking disease progression and evaluating treatment effectiveness in subjects with HD. Higher scores on cUHDRS indicates better overall disease state. By measuring multiple domains, the cUHDRS provides a global and comprehensive assessment of the disease stage.
# [5] = 45 mg bid, up to 78 weeks, CAG >=50
# [6] = Week 26, 45 mg bid, CAG >=50, positive change = improvement
smiles,measurement,setting,value
"CCCN1CCC(c2cccc(S(C)(=O)=O)c2)CC1 [Pridopidine, 4-[3-(methylsulfonyl)phenyl]-1-propyl-piperidine]",effect on SWR / cognitive function compared to placebo (in words),[1],marked improvement
same,effect on TFC / functional capacity compared to placebo (in words),[2]; [5],marked improvement
same,TFC LS Mean change vs placebo,[2]; Week 26,2.99 points
same,TFC LS Mean change from baseline,[2]; [6],2.96
same,TFC LS Mean change vs placebo,[2]; Week 39,3.06 points
same,TFC LS Mean change from baseline,"[2]; Week 39, 45 mg bid, CAG >=50",2.96
same,TFC LS Mean change vs placebo,[2]; Week 52,3.00 points
same,TFC LS Mean change from baseline,"[2]; Week 52, 45 mg bid, CAG >=50",2.91
same,TFC LS Mean change vs placebo,[2]; Week 65,2.90 points
same,TFC LS Mean change from baseline,"[2]; Week 65, 45 mg bid, CAG >=50",2.61
same,TFC LS Mean change vs placebo,[2]; Week 78,3.45 points
same,TFC LS Mean change from baseline,"[2]; Week 78, 45 mg bid, CAG >=50",2.93
same,binding affinity to dopamine D2/D3 receptors,[3],in the micromolar range
same,effect on cUHDRS / disease progression compared to placebo (in words),[4]; [5],marked improvement
same,cUHDRS LS Mean change vs placebo,[4]; Week 26,2.52 points
same,cUHDRS LS Mean change from baseline,[4]; [6],1.79
same,cUHDRS LS Mean change vs placebo,[4]; Week 39,2.66 points
same,cUHDRS LS Mean change from baseline,"[4]; Week 39, 45 mg bid, CAG >=50",1.83
same,cUHDRS LS Mean change vs placebo,[4]; Week 52,2.49 points
same,cUHDRS LS Mean change from baseline,"[4]; Week 52, 45 mg bid, CAG >=50",1.67
same,cUHDRS LS Mean change vs placebo,[4]; Week 65,2.32 points
same,cUHDRS LS Mean change from baseline,"[4]; Week 65, 45 mg bid, CAG >=50",1.41
same,cUHDRS LS Mean change vs placebo,[4]; Week 78,2.52 points
same,cUHDRS LS Mean change from baseline,"[4]; Week 78, 45 mg bid, CAG >=50",1.42
